What was measured:
[1] = system: Rat basophilic leukemia (RBL) cells; assay: LTB4 secretion assay in RBL (rat basophilic leukemia cells); format: cell-based; conditions: Rattus norvegicus, RBL
How it was run: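 Cells seeded 2×10^4/well the day before, then pre-incubated 15 min at 37 °C in EMEM/0.5% FBS with compound (5 nM to 100 uM). Stimulation with 2.5 uM arachidonic acid plus 5 uM A23187 (final) for 10 min at 37 °C; LTB4 in supernatant quantified by EIA.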

[2] = molecular target: T1, human 5-LOX (Homo sapiens, UniProt P09917); assay: 5-LOX enzyme activity, fluorescence method (5-HPETE, H2DCFDA); format: biochemical; conditions: read-out: 5-LO (IC50)
T1 construct: purchased Cayman 60402; host or cells: insect cells (lysate)
T1 sequence (P09917 1-674): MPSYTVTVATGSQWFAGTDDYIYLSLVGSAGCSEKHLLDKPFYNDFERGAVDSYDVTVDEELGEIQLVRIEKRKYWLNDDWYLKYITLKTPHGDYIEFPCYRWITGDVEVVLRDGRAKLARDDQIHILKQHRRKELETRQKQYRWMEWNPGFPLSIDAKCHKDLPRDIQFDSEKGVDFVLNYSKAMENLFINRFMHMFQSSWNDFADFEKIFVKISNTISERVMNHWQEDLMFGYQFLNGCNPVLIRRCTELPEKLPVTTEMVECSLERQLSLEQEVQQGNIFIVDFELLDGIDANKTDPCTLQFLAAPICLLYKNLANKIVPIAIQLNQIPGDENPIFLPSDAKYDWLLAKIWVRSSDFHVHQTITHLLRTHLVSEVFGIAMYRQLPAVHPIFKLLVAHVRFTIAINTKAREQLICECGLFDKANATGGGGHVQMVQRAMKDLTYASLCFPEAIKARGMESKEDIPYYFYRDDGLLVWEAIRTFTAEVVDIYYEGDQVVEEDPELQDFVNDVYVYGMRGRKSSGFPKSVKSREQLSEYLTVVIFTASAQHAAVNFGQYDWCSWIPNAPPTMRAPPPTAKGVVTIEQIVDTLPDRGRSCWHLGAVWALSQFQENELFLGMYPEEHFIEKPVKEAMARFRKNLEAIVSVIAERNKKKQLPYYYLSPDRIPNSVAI
How it was run: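 Compound (0.5 nM to 10 uM) pre-incubated 5 min with enzyme; reaction started with ATP (100 uM final) and arachidonic acid (3 uM final). All steps at room temperature, fluorescence read-out.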

[3] = system: Rat whole blood (RWB); assay: LTB4 secretion assay in RWB (rat whole blood); format: cell-based; conditions: Rattus norvegicus
How it was run: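 Heparinized blood from male Sprague Dawley rats (6-9 weeks) diluted 1:1 in RPMI, pre-incubated 15 min at 37 °C with compound (2.5 nM to 50 uM). Stimulated with 10 uM calcium ionophore A23187 for 10 min at 37 °C, stopped with ice-cold PBS; LTB4 in supernatant quantified by EIA.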

Row | SMILES | EC50 [1] [µM] | IC50 [2] [µM] | EC50 [3] [µM]
1 | CCC(Nc1nc2ccc(NC3COC3)cc2n1C)c1ccc(Oc2ccc(Cl)cn2)cc1 (stereo not drawn) [Compound 275] | < 10 | < 1 | < 10
2 | Nc1ccc2[nH]c(NCc3ccc(-c4ccc(Cl)cn4)cc3)nc2c1 [Compound 164] | < 10 | < 1 | > 20
3 | OCCNc1nc2ccc(NC3COC3)cc2n1Cc1ccc(Oc2ccc(Cl)cc2)cc1 [Compound 204] | < 10 | < 1 | < 10
4 | CCn1c(NCc2ccc(Oc3ncc(Cl)cn3)cc2F)nc2ccc(Nc3cc(C(F)(F)F)n(C)n3)cc21 [Compound 506] | < 10 | > 10 | < 10
5 | CC(Nc1nc2ccc(NC3COC3)cc2n1C)c1ccc(Oc2ccc(Cl)cn2)cc1 (stereo not drawn) [Compound 256] | 10 to 20 | < 1 | < 10
6 | CCn1c(NCc2ccc(Oc3ccc(Cl)cn3)cc2)nc2ccc(NC3COC3)cc21 [Compound 270] | < 10 | < 1 | < 10
7 | Cc1cc(Nc2ccc3nc(NCc4ccc(N(C)c5ncc(Cl)cn5)cc4)n(C)c3c2)n[nH]1 [Compound 471] | < 10 | < 1 | < 10
8 | Cn1c(NCCOc2ccc(OC(F)(F)F)c(Cl)c2)nc2ccc(N)cc21 [Compound 58] | < 10 | < 1 | > 20
9 | CCn1c(NCc2ccc(Oc3ncc(Cl)cn3)cc2)nc2ccc(Nc3cc(C)[nH]n3)cc21 [Compound 476] | < 10 | < 1 | < 10
10 | Nc1ccc2nc(NCc3ccc(Oc4ncccn4)cc3)[nH]c2c1 [Compound 154] | > 20 | < 1 | > 20
11 | Cn1c(NCc2ccc(Oc3ccc(Cl)cc3)nc2)nc2ccc(NC3COC3)cc21 [Compound 307] | 10 to 20 | < 1 | > 20
12 | Cn1c(NCc2ccc(Oc3ccc(Cl)cn3)cc2)nc2ccc(NC(C)(C)C(N)=O)cc21 [Compound 306] | < 10 | < 1 | < 10
13 | Cn1c(NCc2ccc(Oc3ncc(Cl)cn3)c(Cl)c2)nc2ccc(NC3COC3)cc21 [Compound 392] | < 10 | < 1 | < 10
14 | CCC(Nc1nc2ccc(Nc3cc(C)[nH]n3)cc2n1C)c1ccc(Oc2ncc(Cl)cn2)cc1F (stereo not drawn) [Compound 537] | < 10 | < 1 | < 10
15 | Cn1c(NCc2ccc(Oc3ncc(Cl)cn3)cc2)nc2ccc(NC3COC3)cc21 [Compound 289] | < 10 | < 1 | < 10
16 | Cn1c(NCCOc2ccc(OC(F)(F)F)c(Cl)c2)nc2cc(N)ccc21 [Compound 59] | < 10 | < 1 | > 20
17 | Cn1nc(Nc2cc(F)c3nc(NCc4ccc(Oc5ncc(Cl)cn5)cc4)n(C)c3c2)cc1C(F)(F)F [Compound 524] | < 10 | > 10 | 10 to 20
18 | Cn1c(NCc2ccc(Oc3ccc(Cl)cn3)cc2)nc2c(F)cc(NC3COC3)cc21 [Compound 553] | < 10 | < 1 | < 10
19 | Cn1c(NCc2cc(Cl)c(Oc3ncc(Cl)cn3)cc2Cl)nc2ccc(NC3COC3)cc21 [Compound 433] | 10 to 20 | < 1 | < 10
20 | Cn1c(NCc2ccc(Oc3ccc(Cl)cn3)cc2Cl)nc2ccc(NC3COC3)cc21 [Compound 294] | < 10 | < 1 | > 20

Row | SMILES | EC50 [1] [µM] | IC50 [2] [µM] | EC50 [3] [µM]
21 | Nc1ccc2nc(N)n(Cc3ccc(Oc4ccc(C(F)(F)F)cn4)cc3)c2c1 [Compound 243] | < 10 | < 1 | < 10
22 | Clc1ccc(Oc2ccc(CNc3nc4cc(NC5COC5)ccc4[nH]3)cc2)nc1 [Compound 166] | < 10 | < 1 | < 10
23 | Cn1nc(Nc2ccc3nc(NCc4ccc(Oc5ccc(Cl)cn5)cc4)n(C)c3c2)cc1C(F)(F)F [Compound 502] | < 10 | 1 to 10 | < 10
24 | Nc1ccc2[nH]c(N3CCC(Oc4ccc(Cl)cn4)C3)nc2c1 (stereo not drawn) [Compound 160] | < 10 | < 1 | > 20
25 | CC(Nc1nc2cc(N)ccc2[nH]1)c1ccc(Cl)cc1Cl (stereo not drawn) [Compound 74] | < 10 | < 1 | 10 to 20
26 | Nc1ccc2[nH]c(NCc3ccc(Cl)cc3F)nc2c1 [Compound 30] | < 10 | < 1 | < 10
27 | Nc1ccc2nc(N3CCCC3)n(CCOc3ccc(OC(F)(F)F)cc3)c2c1 [Compound 51] | < 10 | < 1 | 10 to 20
28 | Nc1ccc2nc(N)n(Cc3ccc(COc4ccc(Cl)cn4)cc3)c2c1 [Compound 249] | < 10 | < 1 | < 10
29 | CN(c1ccc2nc(NCc3ccc(Oc4ccc(Cl)cn4)cc3)n(C)c2c1)C1COC1 [Compound 277] | < 10 | < 1 | < 10
30 | Cn1c(NCc2ccc(Oc3ccc(C#N)cn3)cc2)nc2ccc(NC3COC3)cc21 [Compound 351] | 10 to 20 | < 1 | < 10
31 | Cn1c(NCc2ccc(Oc3cnc(Cl)cn3)cc2)nc2ccc(NC3COC3)cc21 [Compound 296] | < 10 | < 1 | < 10
32 | CCn1c(NCc2ccc(Oc3ncc(Cl)cn3)cc2F)nc2ccc(Nc3cc(C)[nH]n3)cc21 [Compound 536] | < 10 | < 1 | < 10
33 | Cc1cc(CNc2nc3ccc(NC4COC4)cc3n2C)cc(C)c1Oc1ncc(Cl)cn1 [Compound 418] | > 20 | < 1 | > 20
34 | CN(C)c1nc2ccc(N3CCC(Oc4ccc(OC(F)(F)F)cc4)C3)cc2[nH]1 (stereo not drawn) [Compound 105] | < 10 | < 1 | > 20
35 | CCC(Nc1nc2ccc(Nc3cc(C(F)F)[nH]n3)cc2n1C)c1ccc(Oc2ncc(Cl)cn2)cc1 (stereo not drawn) [Compound 535] | < 10 | < 1 | < 10
36 | Nc1ccc2[nH]c(NCCc3ccc(F)cc3)nc2c1 [Compound 32] | < 10 | < 1 | < 10
37 | Cn1ccc(Nc2ccc3nc(NCc4ccc(Oc5ccc(Cl)cn5)cc4)n(C)c3c2)n1 [Compound 413] | < 10 | < 1 | < 10
38 | COc1nc(Oc2ccc(CNc3nc4ccc(NC5COC5)cc4n3C)cc2)ncc1Cl [Compound 459] | 10 to 20 | < 1 | 10 to 20
39 | Nc1ccc2[nH]c(NCc3ccc(Oc4ccc(F)cc4)cc3)nc2c1 [Compound 94] | < 10 | < 1 | < 10

— patent US11447486B2, “2-amino-benzimidazole derivatives and their use as 5-lipoxygenase and/or prostaglandin E synthase inhibitors” (INSTITUT PASTEUR KOREA, priority 2014, dated 2022)
